Assay results reported in PubChem BioAssay (NCI).
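GI50: concentration for 50% inhibition of growth. Definition used: TGI = concentration required for complete inhibition of growth.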

Legend:
Assay in all cases: NCI tumour cell line growth inhibition, 384-well format
786-0 renal = test system: 786-0 renal
A498 renal = test system: A498 renal
A549 NSCLC = test system: A549 NSCLC
ACHN renal = test system: ACHN renal
BT-549 breast = test system: BT-549 breast
CAKI-1 renal = test system: CAKI-1 renal
CCRF-CEM leukemia = test system: CCRF-CEM leukemia
COLO 205 colon = test system: COLO 205 colon
DU-145 prostate = test system: DU-145 prostate
EKVX NSCLC = test system: EKVX NSCLC
HCC-2998 colon = test system: HCC-2998 colon
HCT-116 colon = test system: HCT-116 colon
HCT-15 colon = test system: HCT-15 colon
HL-60(TB) leukemia = test system: HL-60(TB) leukemia
HOP-62 NSCLC = test system: HOP-62 NSCLC
HS 578T breast = test system: HS 578T breast
HT29 colon = test system: HT29 colon
IGROV1 ovarian = test system: IGROV1 ovarian
K-562 leukemia = test system: K-562 leukemia
KM12 colon = test system: KM12 colon
LOX IMVI melanoma = test system: LOX IMVI melanoma
M14 melanoma = test system: M14 melanoma
MALME-3M melanoma = test system: MALME-3M melanoma
MCF7 breast = test system: MCF7 breast
MDA-MB-231 breast = test system: MDA-MB-231 breast
MDA-MB-435 melanoma = test system: MDA-MB-435 melanoma
MDA-MB-468 breast = test system: MDA-MB-468 breast
MOLT-4 leukemia = test system: MOLT-4 leukemia
NCI-H226 lung = test system: NCI-H226 lung
NCI-H23 lung = test system: NCI-H23 lung
NCI-H322M lung = test system: NCI-H322M lung
NCI-H460 NSCLC = test system: NCI-H460 NSCLC
NCI-H522 lung = test system: NCI-H522 lung
NCI/ADR-RES ovarian = test system: NCI/ADR-RES ovarian
OVCAR-3 ovarian = test system: OVCAR-3 ovarian
OVCAR-4 ovarian = test system: OVCAR-4 ovarian
OVCAR-5 ovarian = test system: OVCAR-5 ovarian
PC-3 prostate = test system: PC-3 prostate
RPMI-8226 leukemia = test system: RPMI-8226 leukemia
SF-268 CNS = test system: SF-268 CNS
SF-295 CNS = test system: SF-295 CNS
SF-539 CNS = test system: SF-539 CNS
SK-MEL-28 melanoma = test system: SK-MEL-28 melanoma
SK-MEL-5 melanoma = test system: SK-MEL-5 melanoma
SK-OV-3 ovarian = test system: SK-OV-3 ovarian
SN12C renal = test system: SN12C renal
SNB-19 CNS = test system: SNB-19 CNS
SNB-75 CNS = test system: SNB-75 CNS
SW-620 colon = test system: SW-620 colon
T-47D breast = test system: T-47D breast
TK-10 renal = test system: TK-10 renal
U251 glioblastoma = test system: U251 glioblastoma
UACC-62 melanoma = test system: UACC-62 melanoma
UO-31 renal = test system: UO-31 renal
HOP-92 NSCLC = test system: HOP-92 NSCLC
OVCAR-8 ovarian = test system: OVCAR-8 ovarian
RXF 393 renal = test system: RXF 393 renal
SK-MEL-2 melanoma = test system: SK-MEL-2 melanoma
UACC-257 melanoma = test system: UACC-257 melanoma

## Cc1ccc(C(=O)N(CCCN)C(c2oc3cc(Cl)ccc3c(=O)c2Cc2ccccc2)C(C)C)cc1 (stereo not given)
786-0 renal
  GI50: < 0.01 µM
  TGI: 1.39 µM
A498 renal
  GI50: 0.029 µM
  TGI: 2.01 µM
A549 NSCLC
  GI50: < 0.01 µM
  TGI: 1.59 µM
ACHN renal
  GI50: 1.16 µM
  TGI: 2.42 µM
BT-549 breast
  GI50: < 0.01 µM
  TGI: 1.36 µM
CAKI-1 renal
  GI50: < 0.01 µM
  TGI: 1.95 µM
CCRF-CEM leukemia
  GI50: < 0.01 µM
  TGI: < 0.01 µM
COLO 205 colon
  GI50: < 0.01 µM
  TGI: < 0.01 µM
DU-145 prostate
  GI50: < 0.01 µM
  TGI: 1.1 µM
EKVX NSCLC
  GI50: < 0.01 µM
  TGI: 1.92 µM
HCC-2998 colon
  GI50: < 0.01 µM
  TGI: 0.542 µM
HCT-116 colon
  GI50: < 0.01 µM
  TGI: 1.21 µM
HCT-15 colon
  GI50: < 0.01 µM
  TGI: 1.23 µM
HL-60(TB) leukemia
  GI50: < 0.01 µM
  TGI: < 0.01 µM
HOP-62 NSCLC
  GI50: < 0.01 µM
  TGI: 1.76 µM
HS 578T breast
  GI50: < 0.01 µM
  TGI: < 0.01 µM
HT29 colon
  GI50: < 0.01 µM
  TGI: < 0.01 µM
IGROV1 ovarian
  GI50: 0.511 µM
  TGI: 2.14 µM
K-562 leukemia
  GI50: < 0.01 µM
  TGI: < 0.01 µM
KM12 colon
  GI50: < 0.01 µM
  TGI: 1.18 µM
LOX IMVI melanoma
  GI50: < 0.01 µM
  TGI: 1.81 µM
M14 melanoma
  GI50: < 0.01 µM
  TGI: < 0.01 µM
MALME-3M melanoma
  GI50: < 0.01 µM
  TGI: 1.74 µM
MCF7 breast
  GI50: < 0.01 µM
  TGI: 1.37 µM
MDA-MB-231 breast
  GI50: < 0.01 µM
  TGI: 1.84 µM
MDA-MB-435 melanoma
  GI50: < 0.01 µM
  TGI: < 0.01 µM
MDA-MB-468 breast
  GI50: < 0.01 µM
  TGI: < 0.01 µM
MOLT-4 leukemia
  GI50: < 0.01 µM
  TGI: < 0.01 µM
NCI-H226 lung
  GI50: 1.5 µM
  TGI: 2.84 µM
NCI-H23 lung
  GI50: < 0.01 µM
  TGI: < 0.01 µM
NCI-H322M lung
  GI50: < 0.01 µM
  TGI: 2.03 µM
NCI-H460 NSCLC
  GI50: < 0.01 µM
  TGI: < 0.01 µM
NCI-H522 lung
  GI50: < 0.01 µM
  TGI: < 0.01 µM
NCI/ADR-RES ovarian
  GI50: 0.129 µM
  TGI: 0.286 µM
OVCAR-3 ovarian
  GI50: < 0.01 µM
  TGI: < 0.01 µM
OVCAR-4 ovarian
  GI50: 1.27 µM
  TGI: 2.56 µM
OVCAR-5 ovarian
  GI50: < 0.01 µM
  TGI: 1.57 µM
PC-3 prostate
  GI50: < 0.01 µM
  TGI: 1.55 µM
RPMI-8226 leukemia
  GI50: < 0.01 µM
  TGI: < 0.01 µM
SF-268 CNS
  GI50: < 0.01 µM
  TGI: < 0.01 µM
SF-295 CNS
  GI50: < 0.01 µM
  TGI: 1.51 µM
SF-539 CNS
  GI50: < 0.01 µM
  TGI: 1.26 µM
SK-MEL-28 melanoma
  GI50: 1.31 µM
  TGI: 2.6 µM
SK-MEL-5 melanoma
  GI50: < 0.01 µM
  TGI: < 0.01 µM
SK-OV-3 ovarian
  GI50: < 0.01 µM
  TGI: 1.78 µM
SN12C renal
  GI50: < 0.01 µM
  TGI: 1.88 µM
SNB-19 CNS
  GI50: < 0.01 µM
  TGI: 1.46 µM
SNB-75 CNS
  GI50: < 0.01 µM
  TGI: 1.81 µM
SW-620 colon
  GI50: < 0.01 µM
  TGI: 0.275 µM
T-47D breast
  GI50: < 0.01 µM
  TGI: < 0.01 µM
TK-10 renal
  GI50: 1.54 µM
  TGI: 2.9 µM
U251 glioblastoma
  GI50: < 0.01 µM
  TGI: 1.46 µM
UACC-62 melanoma
  GI50: < 0.01 µM
  TGI: 1.29 µM
UO-31 renal
  GI50: 1.11 µM
  TGI: 2.34 µM

## Cc1cc(-c2cnn3c(NCC4CC(C)(O)C4)cc(Oc4cccnc4)nc23)ccc1C(=O)NC1CC1 (stereo not given)
A498 renal
  GI50: 0.0921 µM
  TGI: > 100 µM
A549 NSCLC
  GI50: 0.0902 µM
  TGI: > 100 µM
ACHN renal
  GI50: 0.906 µM
  TGI: > 100 µM
BT-549 breast
  GI50: 0.139 µM
  TGI: > 100 µM
CAKI-1 renal
  GI50: 0.56 µM
  TGI: 94.5 µM
CCRF-CEM leukemia
  GI50: 0.0239 µM
  TGI: 0.0507 µM
COLO 205 colon
  GI50: 0.0394 µM
  TGI: > 100 µM
DU-145 prostate
  GI50: 0.0689 µM
  TGI: > 100 µM
EKVX NSCLC
  GI50: 1.78 µM
  TGI: > 100 µM
HCC-2998 colon
  GI50: 5.56 µM
  TGI: > 100 µM
HCT-116 colon
  GI50: 0.049 µM
  TGI: > 100 µM
HL-60(TB) leukemia
  GI50: 0.0293 µM
  TGI: 0.0636 µM
HOP-62 NSCLC
  GI50: 0.0834 µM
  TGI: > 100 µM
HOP-92 NSCLC
  GI50: 4.88 µM
  TGI: > 100 µM
HS 578T breast
  GI50: 0.324 µM
  TGI: 38.4 µM
HT29 colon
  GI50: 2.11 µM
  TGI: > 100 µM
IGROV1 ovarian
  GI50: 1.01 µM
  TGI: > 100 µM
K-562 leukemia
  GI50: 0.818 µM
  TGI: > 100 µM
KM12 colon
  GI50: 0.0673 µM
  TGI: > 100 µM
LOX IMVI melanoma
  GI50: 0.0495 µM
  TGI: > 100 µM
M14 melanoma
  GI50: 0.245 µM
  TGI: > 100 µM
MALME-3M melanoma
  GI50: 1.09 µM
  TGI: > 100 µM
MCF7 breast
  GI50: 17.2 µM
  TGI: > 100 µM
MDA-MB-231 breast
  GI50: 0.735 µM
  TGI: > 100 µM
MDA-MB-435 melanoma
  GI50: 6.16 µM
  TGI: > 100 µM
MDA-MB-468 breast
  GI50: 0.352 µM
  TGI: 4.67 µM
MOLT-4 leukemia
  GI50: 0.0227 µM
  TGI: 0.0431 µM
NCI-H226 lung
  GI50: 77.3 µM
  TGI: > 100 µM
NCI-H23 lung
  GI50: 0.374 µM
  TGI: > 100 µM
NCI-H322M lung
  GI50: 4.57 µM
  TGI: 21.2 µM
NCI-H460 NSCLC
  GI50: 0.188 µM
  TGI: 11.9 µM
NCI-H522 lung
  GI50: 0.467 µM
  TGI: 33 µM
NCI/ADR-RES ovarian
  GI50: 5.9 µM
  TGI: > 100 µM
OVCAR-3 ovarian
  GI50: 0.173 µM
  TGI: 87.9 µM
OVCAR-4 ovarian
  GI50: 5.59 µM
  TGI: > 100 µM
OVCAR-5 ovarian
  GI50: 1.98 µM
  TGI: > 100 µM
OVCAR-8 ovarian
  GI50: 0.0804 µM
  TGI: > 100 µM
PC-3 prostate
  GI50: 1.84 µM
  TGI: > 100 µM
RPMI-8226 leukemia
  GI50: 0.305 µM
  TGI: 0.995 µM
RXF 393 renal
  GI50: 0.0645 µM
  TGI: 2.98 µM
SF-268 CNS
  GI50: 2.18 µM
  TGI: > 100 µM
SF-295 CNS
  GI50: 1.86 µM
  TGI: > 100 µM
SF-539 CNS
  GI50: 0.0455 µM
  TGI: > 100 µM
SK-MEL-2 melanoma
  GI50: 0.431 µM
  TGI: 3.54 µM
SK-MEL-28 melanoma
  GI50: 11.3 µM
  TGI: > 100 µM
SK-MEL-5 melanoma
  GI50: 0.0745 µM
  TGI: > 100 µM
SK-OV-3 ovarian
  GI50: 0.903 µM
  TGI: > 100 µM
SN12C renal
  GI50: 1.81 µM
  TGI: > 100 µM
SNB-19 CNS
  GI50: > 100 µM
  TGI: > 100 µM
SNB-75 CNS
  GI50: 1.91 µM
  TGI: > 100 µM
SW-620 colon
  GI50: 0.0621 µM
  TGI: > 100 µM
TK-10 renal
  GI50: 0.442 µM
  TGI: > 100 µM
U251 glioblastoma
  GI50: 0.065 µM
  TGI: > 100 µM
UACC-257 melanoma
  GI50: 30.7 µM
  TGI: > 100 µM
UACC-62 melanoma
  GI50: 0.972 µM
  TGI: 62.1 µM
UO-31 renal
  GI50: 0.686 µM
  TGI: > 100 µM
